Measurements from US4221808A, “Novel antihypertensive agent” (Richardson-Merrell Inc., priority 1979, dated 1980).

Columns and labels:
α-adrenergic receptor = test: α-Adrenergic receptor blocking activity in isolated rabbit aortic strip, norepinephrine as agonist; type: cell-based; details: contractile response
Experimental: α-Adrenergic receptor blocking activity was determined in vitro by performing cumulative dose-response experiments in the isolated rabbit aortic strip preparation using norepinephrine as the agonist. The contractile response of the rabbit strip preparation in the presence of logarithmically increasing concentrations of the compounds being tested were expressed as percent of the maximal attainable response.

[1] = test system: spontaneously hypertensive rats (SHR); test: Antihypertensive activity in spontaneously hypertensive rats, systolic blood pressure by tail cuff; type: in vivo, rat; details: oral dose of 50 mg/kg
Experimental: Antihypertensive activity was determined in spontaneously hypertensive rats (SHR) of the Okomotor Aoki strain. Systolic blood pressure of the SHR was measured from the caudal artery by means of an indirect method utilizing a photocell transducer/tail cuff occluder system. Time response relationships were determined for each compound following an oral dose of 50 mg/kg. Data were expressed as mm Hg decrease from control values. Statistical significance was determined using a 2 tailed "t" test comparing drug treatment response values to those obtained from concurrent vehicle treated animals.

β-adrenergic receptor [2] = test: β-Adrenergic receptor blocking activity in isolated guinea pig atria, isoproterenol as agonist; type: cell-based; details: from pA2 values, guinea pig atria (β) vs rabbit aortic strip (α)
Experimental: (§1) β-Adrenergic receptor blocking activity was determined in vitro by performing cumulative dose-response experiments in the isolated guinea pig atria preparation using isoproterenol as the agonist. The response (increase in rate) of the guinea pig atria preparation in the presence of logarithmically increasing concentration of the compounds being tested were expressed as percent of the maximal attainable response. Relative antagonistic potency was expressed as a pA2 value, as defined above.

β-adrenergic receptor [3] = target: T1, β-adrenergic receptor (Cavia porcellus, UniProt H0W3H1); test: as above; type: cell-based; details: isolated guinea pig atria; agonist isoproterenol; increase in rate; read-out: pA2 for β-adrenergic receptor blocking activity (converted)
T1 construct: isolated guinea pig atria preparation; from tissue; host or cells: guinea pig atria (isolated)
T1 sequence (H0W3H1 1-470): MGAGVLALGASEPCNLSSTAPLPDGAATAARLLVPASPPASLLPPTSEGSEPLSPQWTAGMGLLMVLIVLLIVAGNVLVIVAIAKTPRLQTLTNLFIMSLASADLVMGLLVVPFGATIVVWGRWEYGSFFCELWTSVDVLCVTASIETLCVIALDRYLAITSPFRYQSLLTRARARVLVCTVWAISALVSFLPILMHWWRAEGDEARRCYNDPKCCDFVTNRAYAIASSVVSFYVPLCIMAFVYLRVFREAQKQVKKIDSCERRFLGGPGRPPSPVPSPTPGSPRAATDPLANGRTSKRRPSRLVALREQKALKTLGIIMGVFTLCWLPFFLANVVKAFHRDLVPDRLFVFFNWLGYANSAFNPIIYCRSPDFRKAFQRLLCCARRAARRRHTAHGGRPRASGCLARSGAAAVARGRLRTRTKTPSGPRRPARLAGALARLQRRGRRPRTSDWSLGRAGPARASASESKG
Experimental: as §1

Structure (SMILES)	pA2 for α-adrenergic receptor blocking activity (α-adrenergic receptor)	decrease in systolic blood pressure from control values ([1]; after 1 hour)	decrease in systolic blood pressure from control values ([1]; after 4 hours)	ratio of β/α blocking activity (β-adrenergic receptor [2])	Kb (β-adrenergic receptor [3])
COc1ccc(C(O)CNC(C)CCc2ccc3c(c2)OCO3)cc1C(N)=O.Cl (stereo not shown) [compound 1, 5-[2-[[3-(1,3-Benzodioxol-5-yl)-1-methylpropyl]amino]-1-hydroxyethyl]-2-methoxybenzamide hydrochloride]	5.14	42 mm Hg	67 mm Hg	> 2089	3.47 nM
CC(CCc1ccc2c(c1)OCO2)NCC(O)c1ccc(O)c(C(N)=O)c1.Cl (stereo not shown) [compound 2, 5-[2-[[3-(1,3-benzodioxol-5-yl)-1-methylpropyl]amino]-1-hydroxyethyl]-2-hydroxybenzamide hydrochloride]	6.08	71 mm Hg	64 mm Hg	55	15.1 nM
Cc1ccc(N(CC2=NCCN2)c2cccc(O)c2)cc1 [phentolamine]	–	62 mm Hg	60 mm Hg	–	> 10000 nM
CC(C)NCC(O)COc1cccc2ccccc12 (stereo not shown) [propranolol]	< 5	did not lower blood pressure significantly	did not lower blood pressure significantly	–	–
